Drawing on article PMC6366710, “The structural basis of unique substrate recognition by Plasmodium thymidylate kinase: Molecular dynamics simulation and inhibitory studies” (PLoS ONE, 2019), this text covers Ki for 4 compounds.

The assay deals with T1, PfTMK (Plasmodium falciparum thymidylate kinase) (Plasmodium falciparum, UniProt Q8I4S1).
T1 construct: gene TMK; natural dimer
T1 sequence (Q8I4S1 1-210): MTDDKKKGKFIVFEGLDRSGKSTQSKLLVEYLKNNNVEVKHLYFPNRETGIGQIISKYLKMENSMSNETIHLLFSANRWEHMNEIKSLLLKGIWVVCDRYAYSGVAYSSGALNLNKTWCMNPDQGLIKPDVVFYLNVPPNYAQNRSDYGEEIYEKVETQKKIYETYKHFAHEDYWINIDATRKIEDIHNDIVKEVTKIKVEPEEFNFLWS
The assay can be described thus: NADH-coupled (pyruvate kinase/lactate dehydrogenase) spectrophotometric TMP kinase assay, initial rates. Format: biochemical. The text has this: NADH-coupled (pyruvate kinase/lactate dehydrogenase) spectrophotometric TMP kinase assay, initial rates on PfTMK (Plasmodium falciparum thymidylate kinase)

In general, Ki refers to the equilibrium dissociation constant of an inhibitor or competing ligand from its target. Low values mean higher affinity, high ones lower affinity. Turning to `Nc1nc2c(ncn2[C@@H]2O[C@H](COP(=O)(O)OP(=O)(O)O[C@H]3O[C@H](CO)[C@@H](O)[C@H](O)[C@@H]3O)[C@@H](O)[C@H]2O)c(=O)[nH]1` [Guanosine diphosphate mannose], the Ki was above 1000 µM. The compound `Nc1nc2c(ncn2[C@H]2C[C@H](O)[C@@H](CO)O2)c(=O)[nH]1` [deoxyguanosine] showed a Ki of 270 µM.

For the compound `Nc1ncn([C@H]2C[C@H](OP(=O)(O)OC[C@H]3O[C@@H](n4cnc5c(=O)[nH]c(N)nc54)C[C@@H]3O)[C@@H](CO)O2)c(=O)n1` [Guadecitabine], affinity was put at a Ki of 90 µM.

Compound `Nc1nc2c(nc(O)n2[C@H]2C[C@H](O)[C@@H](CO)O2)c(=O)[nH]1` [8-Hydroxy-2'-deoxyguanosine] yielded a Ki of 180 µM.
